According to patent US10196345B2, “MAO-B selective inhibitor compounds, pharmaceutical compositions thereof and uses thereof” (The University of British Columbia, priority 2013, dated 2019):

What was measured:
[1] = test system: rat periodontal disease model; conditions: cited from earlier work
[2] = test system: AR protein secretion; experiment: amphiregulin (AR) protein secretion, MDCK-I cells; type: cell-based, canine; conditions: no concentration given
[3] = obese and non-obese rats; cited from earlier work
[4] = test system: Madin Darby canine kidney (MDCK-I) cells; experiment: TEER in MDCK-I cells; type: cell-based; conditions: for 144-hour barrier (TEER) vs control: MDCK-I, treated at 72 hours; for effect on TEER (MAO A, B, AB inhibitors): no concentration given; for TEER, LPS+deprenyl vs control: MDCK-I cells, Transwell, LPS range, 40 μM deprenyl
Description: In each case, TEER was measured every 48 hours after treatment.
Transwell cultures were treated at 72 hours (T) post-cell plating.
Transepithelial Resistance (TER) is a common method to screen for barrier integrity. […] Fluorescein isothiocyanate conjugated 10 kD dextran (Invitrogen™) will be added to the apical Transwell™ compartment, fixed, and examined for dextran permeation (Umeda et al., 2006).
Amphiregulin (AR) is an EGFR binding ligand and may play a pivotal role in the previously described signaling axis (see FIGS. 15-17). […] (ii) GI [intestinal epithelial cell (IEC)] and (iii) classical [Madin-Darby canine kidney (MDCK-1)].

[5] = test system: MAO activity in adipocytes; conditions: cited from earlier work
[6] = test system: DSS induced colitis in C57BL/6 mice; experiment: 3% DSS induced colitis, claudin-3 localization; type: in vivo; conditions: 3% DSS in drinking water, day 7, C57BL/6 mice
Excerpt: FIGS. 21A and B show a 3% DSS induced colitis and protects epithelial cell-cell claudin-3 localization. […] (A). […] (B). […] Increased cell infiltrate is evident in the DSS-treated animals by the DAPI (blue) staining.

[7] = in vitro BBB permeability in MDCK-WT cells; conditions: dog, MDCK
Excerpt: Wildtype Madin-Darby canine cells (MDCK-WT) were used to predict CNS permeability of compounds PS-RG0103, PS-RG0216, PS-RG0245 and PS-AD0191. […] J Allergy Clin Immunol. 1990; 86(6 pt 2): p. 1025-8.
Novel MAO B inhibitors selected based on the above screening program will be screened using an in vitro model of blood brain barrier (BBB). Madin-Darby canine kidney (MDCK-WT) and MDCK cells transfected with the human MDR1 gene (MDCK-MDR1) are well established in vitro models used to predict a compound's ability to permeate the blood brain barrier (BBB). […] Apparent permeability (Papp), Efflux ratio (Papp B-A/Papp A-B), as well as the Net flux ratio (Efflux ratioMDCK-MDR1/Efflux ratioMDCK-WT) can be calculated to identify compound BBB permeability and identify compounds that are substrates of P-gp.

[8] = test system: Porcine ligament epithelial (PLE) cells; experiment: TEER, LPS-induced barrier loss, PLE cells; type: cell-based; conditions: Transwell, LPS challenge at 72 hours
Description: (§1) In each case, TEER was measured every 48 hours after treatment. Statistically significant differences were identified.
(§2) Transepithelial Resistance (TER) is a common method to screen for barrier integrity. […] For select compounds barrier integrity and protection is also measured using tracer studies because TER accuracy in examining TJ integrity has recently come into question (Van Itallie et al., 2008). Fluorescein isothiocyanate conjugated 10 kD dextran (Invitrogen™) will be added to the apical Transwell™ compartment, fixed, and examined for dextran permeation (Umeda et al., 2006). We expect control and deprenyl-treated cells with an intact barrier to maintain the tracer at the apical membrane region, whereas the breached monolayers will show tracer permeation between the cells.

[9] = mouse hepatocyte stability assay; conditions: after 60 minutes at room temperature
[10] = test system: rat intestinal epithelial (IEC-6) cells; experiment: TEER, LPS-induced barrier loss, IEC-6 cells; type: cell-based; conditions: Transwell, LPS challenge at 72 hours
Description: as §1, §2

[11] = stability assay in human liver microsomes; conditions: after 60 minutes at room temperature
[12] = stability assay in mouse liver microsomes; conditions: after 60 minutes at room temperature
[13] = molecular target: T1, recombinant human MAO-A (Homo sapiens, UniProt P21397); experiment: Cell-free Fluorescent Monoamine Oxidase A&B Detection Assay, MAO-A; type: biochemical; conditions: read-out: IC90 MAO-A (μM)
T1 sequence (P21397 1-527): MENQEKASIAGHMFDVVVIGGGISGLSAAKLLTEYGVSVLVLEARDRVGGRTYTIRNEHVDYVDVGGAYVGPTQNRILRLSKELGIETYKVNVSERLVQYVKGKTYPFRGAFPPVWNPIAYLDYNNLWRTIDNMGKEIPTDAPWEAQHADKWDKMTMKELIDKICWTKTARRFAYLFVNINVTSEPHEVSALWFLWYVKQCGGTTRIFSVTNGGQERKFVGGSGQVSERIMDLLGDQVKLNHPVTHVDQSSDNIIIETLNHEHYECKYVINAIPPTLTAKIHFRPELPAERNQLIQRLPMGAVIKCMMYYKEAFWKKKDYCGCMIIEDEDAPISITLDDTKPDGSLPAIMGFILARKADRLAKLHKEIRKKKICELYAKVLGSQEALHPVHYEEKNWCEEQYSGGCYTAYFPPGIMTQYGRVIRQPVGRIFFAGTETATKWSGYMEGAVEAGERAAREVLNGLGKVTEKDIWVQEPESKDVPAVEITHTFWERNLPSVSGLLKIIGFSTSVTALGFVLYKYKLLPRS
Description: The assay was repeated to confirm data.
MAO B specific inhibitory activity and selectivity over MAO A is assayed using a commercial kit [Fluoro MAO A and B detection kit (Cell Technology Inc™)]. This kit uses a non-fluorescent detection reagent to measure H2O2 released from the conversion of an MAO A and MAO B substrate specific to its aldehyde. Furthermore, H2O2 oxidizes the detection reagent in a 1:1 stoichiometry to produce a fluorescent product (resorufin). […] This information is then provided to the medicinal chemists to help direct synthesis of subsequent iterations.

[14] = test system: IL-8 protein expression in Caco-2 cells; experiment: IL-8 protein expression in LPS- and TNFα-treated Caco-2 cells; type: cell-based, human; conditions: Caco-2, 1 μg/mL LPS or 50 ng/mL TNFα + 20 μM compound, 4, 12 or 24 h
Description: Caco-2 cells were seeded at 83300 cells/cm^2 on a polystyrene 96-well plate in DMEM medium (#10313-021, Gibco™) containing 10% FBS. On day 5 after seeding, wells were replaced with fresh media containing 2.5% FBS. […] Supernatants of the treated cells were analyzed for pro- and anti-inflammatory cytokine proteins using the Human Proinflammatory 7-Plex Ultra-Sensitive Kit™ (K15008C, MSD™) measured by the Sector Imager 2400A (MSD™). Left panel: Absolute concentrations of IL-8 protein in supernatants of cells treated with control (media only), 1 μg/mL LPS or 50 ng/mL TNFα. […] Values were determined by subtracting supernatant cytokine concentrations of control from supernatant cytokine concentrations of treated cells. Results are expressed as mean±standard deviation (n=3).

[15] = test system: human intestinal microvascular endothelial cells (HIMEC); experiment: IL-8, IL-6 and TNFα protein expression in LPS-treated HIMEC; type: cell-based; conditions: 1000 ng/mL LPS + 10 μM compound, 1 or 3 hrs
Description: Human microvascular endothelial cells were seeded at 37500 cells/cm^2 on a fibronectin-coated polystyrene 96-well plate in MCDB 131 medium (#10372-019, Gibco™) containing 20% FBS. On day 2 after seeding, wells were replaced with fresh media containing 2.5% FBS. […] Supernatants of the treated cells were analyzed for pro- and anti-inflammatory cytokine proteins using the Human Proinflammatory 7-Plex Ultra-Sensitive Kit (K15008C, MSD) measured by the Sector Imager 2400A (MSD). Left panel: Absolute concentrations of IL-8, IL-6 and TNFα protein in supernatants of cells treated with control (media only) or increasing concentrations of LPS. Right panel: Absolute IL-8, IL-6 or TNFα concentrations induced or attenuated by 1000 ng/mL LPS±the novel MAO B inhibitors. Values were determined by subtracting supernatant cytokine concentrations of control from supernatant cytokine concentrations of treated cells. Results are expressed as mean±standard deviation (n=3). Statistical significance was determined using a one-way ANOVA and Tukey post-hoc test in SPSS (IBM) comparing control and LPS (left panel) or LPS and novel MAO B inhibitors (right panel). *p<0.05, **p<0.001

[16] = test system: C. rodentium infections; experiment: seven-day C. rodentium infection model; type: in vivo
[17] = seven-day C. rodentium infection, preliminary

NNCCc1ccccc1 [phenelzine]
histological indicators of periodontal disease ([1]; co-applied topically with LPS, rat): histological indicators of periodontal disease were reduced
local epithelial cell proliferation and migration, alveolar bone loss, PMN infiltration and systemic H2O2 ([1]; rat periodontal disease model, daily LPS): reduced
effect on AR expression/secretion (MAO A, B, AB inhibitors) [2]: reduced AR expression
MAO activity [3]: inhibited MAO activity
body weight gain [3]: diminished body weight gain
intra-abdominal adipose tissue [3]: reduced intra-abdominal adipose tissue
144-hour barrier (TEER) vs control ([4]; 5 μm inhibitor): increased over control
144-hour barrier (TEER) vs control ([4]; 40 μm inhibitor): increased over control
effect on TEER (MAO A, B, AB inhibitors) [4]: increased TEER
MAO activity in adipocytes [5]: inhibit MAO activity in adipocytes

C#CCN(C)[C@H](C)Cc1ccccc1 [Deprenyl]
claudin-3 localization [6]: better localized to epithelial cell-cell contacts
Papp [7]: 44 ± 2.5 ×10⁻⁶ cm/s
TEER, LPS+deprenyl vs control [8]: rescues LPS reduction of TEER
TEER, LPS+deprenyl vs control ([8]; listed as deprenyl): significantly induced TEER above control
compound remaining, mouse hepatocyte stability [9]: less than 2.5%
TEER, LPS+deprenyl vs control [10]: rescues LPS reduction of TEER
TEER, LPS+deprenyl vs control ([10]; listed as deprenyl): significantly induced TEER above control
compound remaining in human microsome [11]: 15%
compound remaining in mouse microsome [12]: less than 2.5%
IC90 [13]: 9.38 µM
IL-8 protein expression [14]: attenuation of IL-8 protein expression
IL-8, IL-6 and TNFα protein expression [15]: attenuation
TEER, LPS+deprenyl vs control [4]: rescues LPS reduction of TEER
TEER, LPS+deprenyl vs control ([4]; listed as deprenyl): significantly induced TEER above control
TEER, co-treatment with H2O2 ([4]; MDCK-I on Transwell membranes, H2O2): increased TEER significantly above the control
144-hour barrier (TEER) vs control ([4]; 5 μm inhibitor): increased over control
144-hour barrier (TEER) vs control ([4]; 40 μm inhibitor): increased over control
effect on TEER (MAO A, B, AB inhibitors) [4]: increased TEER
bacterial growth rates ([16]; C. rodentium): did not influence bacterial growth rates
TJ protein localization at the cell periphery [16, 17]: intact
hyperplastic phenotype [16, 17]: not apparent
